Where no end group is shown, it is not given here. [ ]: non-standard residue; d: D form. TGN = not defined here
Tested on: CTNNB1
Assay: In vitro DMD assay: mRNA silencing enhancement by peptide conjugates after siRNA-IV treatment
Assay type: cell-based
Details: primary mouse hepatocytes, siRNA-IV 125 nM baseline
Method: Cryopreserved primary Mouse hepatocytes (Bioreclamation, LLC) were placed into Collagen Type I coated 96-well plates at 25,000 cells per well in serum-containing InVitroGRO CP media (Bioreclamation, LLC) and allowed 5 hours to attach. Media was replaced with InVitroGRO HI media and cells were treated with siRNA-IV at 125 nM [siRNA] for 1 hour. Media was replaced with InVitroGRO HI media and cells were treated for approximately 16 hours with experimental Peptide conjugates at various concentrations to establish a dose-response curve. Peptide conjugates were washed out after 16 hours with InVitroGRO HI media and cells allowed to incubate for an additional 24 hours. Cells were then lysed and mRNA expression of the siRNA target was measured by RT-qPCR (Applied Biosystems Taqman reagents). mRNA silencing activity of each Peptide conjugate was expressed as an enhancement above the baseline activity of 125 nM siRNA-IV alone with respect to the untreated cells and all siRNA target Ct values were normalized to PPIB mRNA for each well (dddCt) and summarized.
The structure of TGN-S-S-peptide is shown below and the activity data is listed in Table 5 (siRNA-IV concentration was kept at […]).

Substance	In vitro dddCt (vs. baseline SCE dose) (Targeted peptide dose 8 nM)	In vitro dddCt (vs. baseline SCE dose) (Targeted peptide dose 40 nM)	In vitro dddCt (vs. baseline SCE dose) (Targeted peptide dose 200 nM)	In vitro dddCt (vs. baseline SCE dose) (Targeted peptide dose 1000 nM)	In vitro dddCt (vs. baseline SCE dose) (Targeted peptide dose 5000 nM)	other results
TGN-S-S-SEQ ID NO: 1633(D) ([dC]G[dL][dF]G[dE][dI][dH][dH][dL][dI][dH][dH]G[dL][dE][dN][dL][dI][dD][dW][dW][dN]G; not fully specified (residue 1); also: TGN attached via disulfide; listed as Homo sapiens)	–	–	–	–	–	In vitro dddCt (vs. baseline SCE dose) (Targeted peptide dose 125 nM): −0.39; In vitro dddCt (vs. baseline SCE dose) (Targeted peptide dose 625 nM): −0.57; In vitro dddCt (vs. baseline SCE dose) (Targeted peptide dose 3125 nM): −0.37; In vitro dddCt (vs. baseline SCE dose) (Targeted peptide dose 15625 nM): −0.69
TGN-S-S-SEQ ID NO: 1654 (D)) ([dC]G[dL][dL][dE][dE][dI][dE][dE][dL][dL][dE][dE]G[dL][dE][dN][dL][dI][dD][dW]G[dN][dS]; not fully specified (residue 1); also: TGN attached via disulfide; listed as Homo sapiens)	–	–	–	–	–	In vitro dddCt (vs. baseline SCE dose) (Targeted peptide dose 125 nM): −1.05
TGN-S-S-SEQ ID NO: 1717 (L) (C(TGN)FLGALFHALSHLLENLIDWWNG; reading uncertain; also: TGN disulfide conjugate at Cys1; listed as Homo sapiens)	–	–	–	–	–	In vitro dddCt (vs. baseline SCE dose) (Targeted peptide dose 25 nM): 0.61; In vitro dddCt (vs. baseline SCE dose) (Targeted peptide dose 625 nM): 0.37; In vitro dddCt (vs. baseline SCE dose) (Targeted peptide dose 3125 nM): 0.15
TGN-S-S-SEQ ID NO: 1738 (D) (G[dL][dF]G[dE][dI][dE][dE][dL][dI][dE][dE]G[dL][dE][dN][dL][dI][dD][dW]G[dN]G[dL][dA][dE][dL][dA][dE][dA][dL][dE][dA][dL][dA][dA]GG[dS][dC]; not fully specified (residue 40); also: disulfide to TGN peptide via Cys40; listed as Homo sapiens)	−0.24	−0.67	−1.57	−1.69	−2.19	–
TGN-S-S-SEQ ID NO: 1740(D) (G[dL][dF][dE][dA][dI][dE]G[dF][dI][dE][dN]G[dW][dE]G[dL][dA][dE][dL][dA][dE][dA][dL][dE][dA][dL][dA][dA]GG[dS][dC]; not fully specified (residue 33); also: disulfide to TGN peptide via Cys33; listed as Homo sapiens)	−0.19	−0.46	−1.29	−2.3	−2.98	–
TGN-S-S-SEQ ID NO: 1741 (L) (GLFGALAEALAEALAEHLAEALAEALEALAAGGSC(TGN); reading uncertain; also: TGN linked to Cys via disulfide, TGN not defined; listed as Homo sapiens)	0.03	−0.11	−0.25	0.98	−0.58	In vitro dddCt (vs. baseline SCE dose) (Targeted peptide dose 24 nM): 0; In vitro dddCt (vs. baseline SCE dose) (Targeted peptide dose 120 nM): 0.02; In vitro dddCt (vs. baseline SCE dose) (Targeted peptide dose 600 nM): −0.08; In vitro dddCt (vs. baseline SCE dose) (Targeted peptide dose 3000 nM): −0.4; In vitro dddCt (vs. baseline SCE dose) (Targeted peptide dose 15000 nM): −0.25
TGN-S-S-SEQ ID NO: 1747 (D) ([dC]G[dL][dF]G[dE][dI][dE][dE][dL][dL][dE][dE]G[dL][dE][dN][dL][dI][dD][dW]G[dN]G; not fully specified (residue 1); also: disulfide to TGN peptide via Cys1; listed as Homo sapiens)	−0.23	−0.7	−1.53	−2.08	−1.98	–
TGN-S-S-SEQ ID NO: 1748 (D) ([dC]G[dL][dF]G[dE][dI][dE][dE][dL][dI][dE][dE][dA][dL][dE][dN][dL][dI][dD][dW]G[dN]G; not fully specified (residue 1); also: disulfide to TGN peptide via Cys1; listed as Homo sapiens)	−0.2	−0.5	−1.38	−1.92	−2.01	–
TGN-S-S-SEQ ID NO: 1749 (D) ([dC]G[dL][dF]G[dE][dI][dE][dE][dL][dI][dE][dE]G[dF][dE][dN][dL][dI][dD][dW]G[dN]G; not fully specified (residue 1); also: disulfide to TGN peptide via Cys1; listed as Homo sapiens)	0.02	−0.04	−0.26	−0.22	−0.11	–
TGN-S-S-SEQ ID NO: 1751 (D) ([dC]G[dL][dF]G[dE][dI][dE][dE][dL][dI][dE][dE]G[dW][dE][dN][dL][dI][dD][dW]G[dN]G; not fully specified (residue 1); also: disulfide to TGN peptide via Cys1; listed as Homo sapiens)	−0.1	−0.12	0.09	−0.05	0.01	–
TGN-S-S-SEQ ID NO: 1752 (D) ([dC]G[dL][dF]G[dE][dI][dE][dE][dW][dI][dE][dE]G[dL][dE][dN][dL][dI][dD][dW]G[dN]G; not fully specified (residue 1); also: disulfide to TGN peptide via Cys1; listed as Homo sapiens)	−0.25	−0.48	−0.89	−0.95	−1.02	–
TGN-S-S-SEQ ID NO: 1753 (D) ([dC]G[dL][dF]G[dE][dI][dE][dE][dF][dI][dE][dE]G[dL][dE][dN][dL][dI][dD][dW]G[dN]G; not fully specified (residue 1); also: disulfide to TGN peptide via Cys1; listed as Homo sapiens)	0.15	0.05	−0.2	−0.18	−0.16	–
TGN-S-S-SEQ ID NO: 1755 (D) ([dC]G[dL][dF]G[dE][dI][dE][dE][dL][dF][dE][dE]G[dL][dE][dN][dL][dI][dD][dW]G[dN]G; not fully specified (residue 1); also: disulfide to TGN peptide via Cys1; listed as Homo sapiens)	−0.01	−0.24	−0.38	−0.49	−0.24	–
TGN-S-S-SEQ ID NO: 1758 (D) ([dC]G[dL][dF]G[dE][dI][dE][dE][dL][dI][dE][dE]G[dL][dE][dE][dL][dI][dD][dW]G[dN]G; not fully specified (residue 1); also: disulfide to TGN peptide via Cys1; listed as Homo sapiens)	0.04	−0.02	−0.38	−0.77	−0.64	–

Source: patent US10239957B2, “Peptide containing conjugates for dual molecular delivery of oligonucleotides” (Merck Sharp & Dohme Corp., priority 2013, dated 2019)
